One assay has as its target T1, MBP-SUFU-Δ (Homo sapiens, UniProt Q9UMX1, DEL285-359/L360P/P281R/P282G/R280S/S279P).
T1 construct: subcloning different SUFU32–483 variants into vector pLJMBP4c; His tag (as in MBP-SUFU-FL; purified on HisTrap) (C); made in house; host or cells: Escherichia coli JM109 (DE3)
Briefly: Microscale thermophoresis with FAM-GLI1p, MBP-SUFU-Δ. Conditions: binding to MBP-SUFU-Δ; 50 nM FAM-GLI1p. The method, then:
(§1) A 5-FAM-labelled peptide (FAM-GLI1p) comprising residues 115–131 of GLI1 (Supplementary Table S1b) was synthesized by Pepceuticals Ltd. A titration series of each recombinant protein was prepared by serial 1:1 dilutions in MST buffer (50 mM Tris–HCl pH 7.6, 150 mM NaCl, 10 mM MgCl2, 0.05% Tween-20) and mixed in a 1:1 ratio with FAM-GLI1p to give final concentrations of 50 nM FAM-GLI1p with MBP-SUFU constructs in the ranges 14.2–29 070 and 54–110 500 nM. Reactions were aspirated into glass capillaries and the thermophoretic movement of FAM-GLI1p was monitored using a Monolith NT.115 instrument (NanoTemper Technologies; Wienken et al., 2010[▶]), with a laser on for 30 s and off for 5 s and a laser power/voltage of 20% for MBP-SUFU-FL and the MBP-SUFU-FL mutants, 40% for MBP-SUFU-Δ and 80% for MBP-SUFU-SH. Fluorescence was measured before laser heating (F Cold) and after 30 s of laser-on time (F Hot). The normalized fluorescence F Hot/F Cold reflects the concentration ratio of labelled molecules. F Hot/F Cold was plotted directly and multiplied by a factor of […], yielding a relative change in fluorescence per thousand. K d was calculated from three independent thermophoresis measurements using NanoTemper software (NanoTemper Technologies).
(In general: Microscale thermophoresis detects binding through changes in fluorescence in a small temperature gradient.)

For assay [1], the target named is T2, MBP-SUFU-FL (Homo sapiens, UniProt Q9UMX1).
T2 construct: containing residues 32–483 of human SUFU and a C-terminal hexahistidine tag; hexahistidine tag (C); made in house; host or cells: Escherichia coli JM109 (DE3)
Briefly: Microscale thermophoresis with FAM-GLI1p, MBP-SUFU-FL. The following applies: binding to MBP-SUFU-FL; 50 nM FAM-GLI1p. How it is done: as §1

A further assay concerns MBP-SUFU-SH. Briefly: Microscale thermophoresis with FAM-GLI1p, MBP-SUFU-SH. Set-up: species or system human. Conditions: binding to MBP-SUFU-SH; 50 nM FAM-GLI1p. The method, then:
as §1

In assay [2] the test system is Hh pathway, Sufu −/− MEFs with SUFU-FL. In words: Hh pathway reactivation in Sufu −/− MEFs expressing SUFU-FL. In kind it is cell-based, mouse. The following applies: 48–72 h, luciferase. How it is done: (§2) Sufu ^−/− mouse embryonic fibroblast (MEF) cells (Svärd et al., 2006[▶]) were transfected with a mixture of p8x3′Gli-BS LucII or p8x3′Gli-mBS LucII reporter constructs (Sasaki et al., 1997[▶]; generous gifts from Hiroshi Sasaki) together with pRL-SV40 (Promega) internal control using Lipofectamine LTX with Plus reagent (Invitrogen) according to the manufacturer’s instructions. Following transfection, Sufu ^−/− MEF cells were grown until the culture reached confluency (24–48 h) and the cells were then switched to low-serum medium (0.5% FBS) with 100–200 nM SAG (kindly provided by Jan Bergman, Karolinska Institutet), 10 µM purmorphamine (Calbiochem) or Shh conditioned medium (1:4) and grown for an additional 48–72 h. Cell lysis and luciferase activity measurements were performed using a Dual Luciferase Activity Assay Kit (Promega). For statistical evaluation of reporter gene assays, a one-tailed paired Student’s t-test was used. All activity measurements were performed at least three times in independent experiments.

The test system of assay [3] is Hh pathway, Sufu −/− MEFs with SUFU-SH. Briefly: Hh pathway reactivation in Sufu −/− MEFs expressing SUFU-SH. In kind it is cell-based, mouse. Conditions: 48–72 h, luciferase. How it is done:
as §2

The subject of assay [4] is Hh pathway, Sufu −/− MEFs with SUFU-Δ. In words: Hh pathway reactivation in Sufu −/− MEFs expressing SUFU-Δ. In kind it is cell-based, mouse. The following applies: 48–72 h, luciferase. The method, then:
as §2

Assay [5] deals with Hh pathway, Sufu −/− MEFs with SUFU-IDRfly. Briefly: Hh pathway reactivation in Sufu −/− MEFs expressing SUFU-IDRfly. In kind it is cell-based, mouse. The following applies: SAG 100–200 nM, 48–72 h, luciferase. The method, then:
as §2

Assay [6] concerns the target T2, MBP-SUFU-FL. Briefly: HDX protection of MBP-SUFU-FL by GLI peptides. In kind it is binding. How it is done: To compare amide HDX kinetics between MBP-SUFU-FL and MBP-SUFU-Δ, 4 µl of each protein (both at 11 mg ml^−1 in 50 mM Na HEPES pH 7.0, 50 mM NaCl, 5 mM β-mercaptoethanol, 1.5 mM maltose) was mixed with 13 µl deuterated buffer with the same ionic composition as the protein sample. For MBP-SUFU-FL–Gli3p interaction experiments, 45 µl MBP-SUFU-FL (11 mg ml^−1) was mixed with 5 µl Gli3p (6 mM; a 5.5-fold excess) and incubated for 1 h. In the latter case, exchange was initiated by mixing 4 µl MBP-SUFU-FL–Gli3p with 13 µl deuterated buffer with the same ionic composition as the sample. Each reaction was stopped by adding 9 µl quenching solution (4 M urea, 50 mM TCEP, 1% TFA) and flash-freezing in liquid N2. Deuteration reactions were incubated for 60, 300, 600 and 1800 s for the MBP-SUFU-FL and MBP-SUFU-Δ experiments and 300, 600 and 1800 s for the MBP-SUFU-FL–Gli3p interaction experiments (at 4°C, in triplicate). A 24 h incubation was used as a fully deuterated sample for back-exchange correction.
Samples were analyzed in a semi-automated HDX-MS system (Biomotif AB, Sweden) in which manually injected samples were automatically digested, cleaned and separated at 1.0°C. […]

The mark [7] stands for this setting: purmorphamine 10 µM, p ≤ 0.05, n = 5.

Where a SMILES comes first, the peptide text is derived from it. The star is where a group is joined. 5FAM = O=C1OC2(c3ccc(O)cc3Oc3cc(O)ccc32)c2ccc(C(=O)*)cc21

T2 sequence (Q9UMX1 32-483, other chains not shown): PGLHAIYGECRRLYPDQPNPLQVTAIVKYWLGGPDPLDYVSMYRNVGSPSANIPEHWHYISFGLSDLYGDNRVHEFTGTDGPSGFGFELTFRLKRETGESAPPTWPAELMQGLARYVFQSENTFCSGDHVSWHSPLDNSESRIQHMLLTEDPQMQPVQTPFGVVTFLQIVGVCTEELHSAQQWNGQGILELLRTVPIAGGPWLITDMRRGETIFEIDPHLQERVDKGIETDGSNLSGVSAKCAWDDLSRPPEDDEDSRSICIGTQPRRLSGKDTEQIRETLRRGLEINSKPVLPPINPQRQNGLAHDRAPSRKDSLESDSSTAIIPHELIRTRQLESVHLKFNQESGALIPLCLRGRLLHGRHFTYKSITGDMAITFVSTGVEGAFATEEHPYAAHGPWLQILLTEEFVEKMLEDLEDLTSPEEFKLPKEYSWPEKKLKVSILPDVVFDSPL
T1 sequence (Q9UMX1 with tags, fused parts or gaps S279P/R280S/P281R/P282G/DEL285-359/L360P limits assumed, other chains not shown): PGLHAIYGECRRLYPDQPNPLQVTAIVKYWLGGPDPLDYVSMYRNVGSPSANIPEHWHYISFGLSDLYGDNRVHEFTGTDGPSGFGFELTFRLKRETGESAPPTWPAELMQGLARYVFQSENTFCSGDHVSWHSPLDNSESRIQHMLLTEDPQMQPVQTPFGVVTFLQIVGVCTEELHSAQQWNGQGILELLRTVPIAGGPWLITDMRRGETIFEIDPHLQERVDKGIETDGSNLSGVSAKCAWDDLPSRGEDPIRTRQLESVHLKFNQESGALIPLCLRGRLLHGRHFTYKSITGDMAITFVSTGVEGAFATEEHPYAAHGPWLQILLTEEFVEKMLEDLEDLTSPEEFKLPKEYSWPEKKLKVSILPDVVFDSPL

For `CC[C@H](C)[C@H](NC(=O)[C@H](CO)NC(=O)[C@H](CC(C)C)NC(=O)[C@H](Cc1c[nH]cn1)NC(=O)CNC(=O)[C@H](Cc1ccc(O)cc1)NC(=O)[C@H](CO)NC(=O)CNC(=O)CNC(=O)[C@@H]1CCCN1C(=O)[C@H](CO)NC(=O)[C@@H](NC(=O)c1ccc2c(c1)C(=O)OC21c2ccc(O)cc2Oc2cc(O)ccc21)[C@@H](C)O)C(=O)NCC(=O)N[C@H](C(=O)N[C@@H](CCSC)C(=O)N[C@@H](CO)C(=O)N1CCC[C@H]1C(=O)O)[C@@H](C)O` [FAM-GLI1p] (5FAM-TSPGGSYGHLSIGTMSP-OH; C-terminus assumed), the “thermophoretic movement of the peptide on binding” value on MBP-SUFU-Δ is recorded as “decreased it”; on MBP-SUFU-FL [1] it was “increased the rate of movement in the thermophoretic gradient”; in the assay with MBP-SUFU-SH, “decreased it”.
`c1ccc2c(Oc3nc(Nc4ccc(N5CCOCC5)cc4)c4ncn(C5CCCCC5)c4n3)cccc2c1` [Purmorphamine]: the pathway reactivation result in assay [2] (setting [7]) is “the same disparate effects on SUFU-FL and SUFU-Δ repressive function”; in assay [3] (purmorphamine 10 µM), “Lack of Hh pathway reactivation”; in assay [4] (setting [7]), “the same disparate effects on SUFU-FL and SUFU-Δ repressive function”; in assay [4] (purmorphamine 10 µM, p ≤ 0.05, n = 5, listed as purmorphamine), “Lack of Hh pathway reactivation”.
For `CNC1CCC(N(Cc2cccc(-c3ccncc3)c2)C(=O)c2sc3ccccc3c2Cl)CC1` (stereo not shown) [SAG], the pathway reactivation result in assay [2] (SAG 100–200 nM) is on record as “overrode repression by the full-length protein”; in assay [3] (SAG 100–200 nM, p ≤ 0.01, n = 4), “failed to reactivate the pathway”; in assay [4] (SAG 100–200 nM, p ≤ 0.005, n = 10), “failed to reactivate the pathway”; in assay [5] it was “repression could not be relieved”.
Take “GLI3p-SHC: GLI3 peptide that terminates at His336; residues 328–336 (SSASGSYGH)”: the “protection of MBP-SUFU-FL from deuteration (HDX)” value with MBP-SUFU-FL [6] (GLI3 peptide that terminates at His336, data not shown) is recorded as “unable to protect MBP-SUFU-FL from deuteration”.
Take “GLI3p: corresponding peptide from human GLI3; residues 328–344 (SSASGSYGHLSASAISP)”: the “protection of MBP-SUFU-FL from deuteration (HDX)” value with MBP-SUFU-FL [6] (Gli3p 5.5-fold excess, 1 h pre-incubation, 300, 600 and 1800 s exchange at 4°C, in triplicate, LC-MS) is “more protected from exchange in the presence of the peptide”.
